US4980377A, “1-(aminophenyl)-2-aminopropanone derivatives” (Laboratoire L. Lafon, priority 1984, dated 1990)
“Also recorded” adds a separate entry of the source. Structures can show the parent of a compound that is named as a salt.

Experiments:
[1] = tested on: mice; assay: Spontaneous motility; type: in vivo, mouse; conditions: i.p.
Procedure: 0.5 hour after they have received CRL 41 153, the mice (6 per dose, 12 control animals) are placed in an actimeter, where their motility is recorded for 30 minutes.

[2] = tested on: mice; assay: Four plate test, traction and electric shock; type: in vivo, mouse; conditions: i.p.
Procedure: The test is performed on groups of 10 mice 30 minutes after the administration of CRL 41 153.

[3] = tested on: mice; assay: Interaction with oxotremorine; type: in vivo, mouse; conditions: i.p.
Procedure: CRL 41 153 is administered to groups of 6 mice 0.5 hour before the intraperitoneal injection of 0.5 mg/kg of oxotremorine.

[4] = tested on: rats; assay: Interaction with apomorphine in rats; type: in vivo, rat; conditions: i.p.
Procedure: CRL 41 153 is administered to groups of 6 rats 0.5 hour before the subcutaneous injection of 0.5 mg/kg of apomorphine.

[5] = tested on: mice; assay: Interaction with reserpine; type: in vivo, mouse; conditions: i.p.
Procedure: Four hours after the intraperitoneal injection of 2.5 mg/kg of reserpine, groups of 6 mice receive CRL 41 153.

[6] = tested on: gravid White New Zealand female rabbits; assay: Teratogenicity in gravid White New Zealand rabbits; type: in vivo, rabbit; conditions: day 5 to day 18 of gestation; for Affected foetuses, %: normal limit 1.5%
Procedure, shortened: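 Fetuses harvested by cesarean on gestation day 29 were scored for number and for any malformation (limb blockade, anury, tail or skull defects, exencephaly).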

[7] = tested on: mice; assay: Motility reduced by hypoxic aggression; type: in vivo, mouse; conditions: i.p.
Procedure: Half an hour after they have received CRL 41 153, the mice (10 per dose, 20 control animals) are subjected to acute hypobaric anoxia [pressure reduction of 600 mm Hg (i.e. about 8×10^4 Pa) in 90 seconds; release of vacuum in 45 seconds] and are then placed in an actimeter, where their motility is recorded for 10 minutes.

[8] = tested on: rats; assay: Interaction with amphetamine; type: in vivo, rat; conditions: i.p.
Procedure: Amphetamine (2 mg/kg) is injected intraperitoneally into groups of 6 rats 30 minutes after the administration of CRL 41 153. […] 4 mg/kg and 16 mg/kg, CRL 41 153 potentiates the intensity and duration of the stereotypies induced by amphetamine.

[9] = tested on: dogs; assay: Cardiovascular study in anesthetized dogs; type: in vivo, dog
Procedure: Two dogs (average weight: 14.1 kg), anesthetized with nembutal, receive CRL 41 194 by intraduodenal administration at successive doses of 0.1 mg/kg, 0.5 mg/kg, 1 mg/kg, 2.5 mg/kg, 5 mg/kg and 10 mg/kg (in solution in physiological solvent).
The blood pressure, the heart rate, the blood flow through the femoral artery, the blood flow through the vertebral artery and the rectal temperature are measured. The coloration of the skin and the coloration of the bile, collected by catheterization of the bile duct after ligature of the cystic duct, are observed.
4 dogs (average weight: 14 kg), anesthetized with nembutal, receive CRL 41 221 by intraduodenal administration at successive doses of 0.1 mg/kg, 0.5 mg/kg, 1 mg/kg, 2.5 mg/kg, 5 mg/kg and 10 mg/kg. The blood pressure, the heart rate, the blood flow through the femoral artery, the blood flow through the vertebral artery and the rectal temperature are measured. The coloration of the skin is observed.

[10] = tested on: immunity; assay: Immunological study (overall); conditions: in vivo; hydrochloride
[11] = tested on: mice; assay: Asphyxiant anoxia (gallamine triiodoethylate); type: in vivo, mouse; conditions: i.p., curarizing agent
Procedure: Groups of 10 mice receive CRL 41 153 half an hour before the intraperitoneal administration of 32 mg/kg of gallamine triiodoethylate (reference curarizing agent).

[12] = tested on: rats; assay: Overall behavior and reactivities in rats; type: in vivo, rat; conditions: dose not stated
Procedure: (§1) In the neuropsychopharmacological study which follows, a solution of CRL 41 153 in distilled water (pH 1.5) was administered intraperitoneally in a volume of 20 ml/kg to male mice and 5 ml/kg to male rats.
(§2) Groups of three animals are observed before and then 0.25 hour, 0.50 hour, 1 hour, 2 hours, 3 hours and 24 hours after the administration of CRL 41 153.

[13] = tested on: mice; assay: Behavioral despair; type: in vivo, mouse; conditions: forcibly immersed mice, i.p.
Excerpt: Half an hour after they have received CRL 41 153, groups of 6 mice are placed in a beaker filled with water to a height of 6 cm. The total period of immobility between the 2nd and 6th minutes following immersion is noted.

[14] = tested on: mice; assay: Motility reduced by habituation to the enclosure; type: in vivo, mouse; conditions: i.p.
Procedure: After they have stayed In the actimeters for 18 hours, (he mice (6 per dose, 12 control animals) receive CRL 41 153. They are immediately returned to their respective enclosures and, half an hour later, their motility is recorded for 30 minutes.

[15] = tested on: mice; assay: Intergroup aggressiveness; type: in vivo, mouse; conditions: i.p.
Procedure: After they have stayed for 3 weeks in the two halves of a cage divided by an opaque partition, groups of 3 mice receive CRL 41 153. Half an hour later, the two groups from the same cage are brought together by removal of the partition, and the number of fights which occur in 10 minutes is noted.

[16] = tested on: mice; assay: Interaction with barbital; type: in vivo, mouse; conditions: i.p., barbital 220 mg/kg
Procedure: Half an hour after the administration of CRL 41 153, groups of 10 mice receive an intraperitoneal injection of barbital (220 mg/kg).

[17] = tested on: CNS; assay: Neuropsychopharmacological profile as a whole; type: in vivo, mice and rats; conditions: conclusion of the tests
Procedure: as §1

[18] = tested on: mice; assay: Overall behavior and reactivities in mice; type: in vivo, mouse; conditions: dose not stated
Procedure: as §1, §2

[19] = pH of solutions in distilled water; type: physicochemical
Procedure: The neuropsychopharmacological study was undertaken according to the procedures described above for CRL 41 153, CRL 41 213 being adminstered intraperitoneally, in solution in distilled water, in a volume of 20 ml/kg to male mice and a volume of 5 ml/kg to male rats, and the pH of the injected solution varying with the concentration of CRL 41 213 according to the data given in Table II below.

[20] = tested on: mice; assay: Interaction with apomorphine in mice; type: in vivo, mouse; conditions: i.p.
Procedure: Groups of 6 mice receive CRL 41 153 0.5 hour before the subcutaneous injection of 1 or 16 mg/kg of apomorphine.

[21] = Particular toxicity in grouped mice; conditions: mouse, in vivo, ip
Procedure: The number of dead animals is noted after 1 hour, 2 hours, 3 hours, 4 hours and 24 hours.

[22] = tested on: nigrostriatal dopaminergic system; assay: Interaction with alpha-methyltyrosine on stereotypies (difference from amphetamine); conditions: α-methyltyrosine (catecholamine synthesis blocked)
[23] = anesthetized dogs, intraduodenal
[24] = dogs, after product, isoprenaline 3 μg/kg
[25] = dogs, after product, norepinephrine 2 μg/kg

With `CC(C)NC(C)C(=O)c1ccc(N)c(Cl)c1` (stereo not shown) [CRL 41 221, 1-(4-amino-3-chlorophenyl)-2-isopropylaminopropanone hydrochloride] the Spontaneous motor activity [1] was “an increase in the spontaneous motor activity of mice”, the “Effect on convulsant effects of electric shock” value [2] was “a reduction in the convulsant effects of electric shock” and the “Number of punished passes in the four plate test” value [2] was “a moderate increase in the number of punished passes in the 4 plate test on mice (at a strong dose)”. For the same compound, the “Effect on hypothermic action of oxotremorine” value [3] was “antagonism of the hypothermia”, the “Effect on stereotypies induced by apomorphine” value [4] was “potentiation of the stereotypies” and the “Effect on hypothermia induced by reserpine” value [5] was “antagonism of the hypothermia”. For the same compound, the “Effect on ptosis induced by reserpine” value [5] was “a decrease in the ptosis induced by reserpine”, the “Affected foetuses, number” value ([6]; 5 mg/kg daily) was 1 and the “Total foetuses (live)” value ([6]; 5 mg/kg daily) was 91. For the same compound, the “Affected foetuses, %” value ([6]; 5 mg/kg daily) was 1.11%, the “Affected foetuses, number” value ([6]; 10 mg/kg daily) was 1 and the “Total foetuses (live)” value ([6]; 10 mg/kg daily) was 87. For the same compound, the “Affected foetuses, %” value ([6]; 10 mg/kg daily) was 1.14%, the “Motor recovery of mice after hypobaric hypoxia” value [7] was “improvement in the motor recovery of mice subjected to acute hypoxia” and the “Effect on stereotypies induced by amphetamine” value [8] was “potentiation of the stereotypies”. For the same compound, the “Effect on hypertension induced by norepinephrine” value ([9]; anesthetized dogs) was “slightly reduced”, the “Effects of isoprenaline on the blood pressure” value ([9]; anesthetized dogs) was “not modified as regards the diastolic blood pressure” and the Rectal temperature ([9]; anesthetized dogs) was “the rectal temperature and skin temperature rise gradually”. For the same compound, the Skin temperature ([9]; anesthetized dogs) was “the rectal temperature and skin temperature rise gradually”, the “Effects of isoprenaline on the heart rate” value ([9]; anesthetized dogs, after accumulated dose of 19.1 mg/kg intraduodenal) was “slightly reduced as regards the heart rate” and the Blood pressure [9, 23] was “A reduction in the diastolic blood pressure is observed at 5 mg/kg and hypotension appears at 10 mg/kg”. For the same compound, the Femoral flow [9, 23] was “tachycardiac effect as from 2.5 mg/kg, that the femoral flow increases substantially as from this same dose”, the Heart rate [9, 23] was “tachycardiac effect as from 2.5 mg/kg” and the Respiration [9, 23] was “the respiration is stimulated”. The Vertebral flow [9, 23] was “the vertebral flow increases at a dose of 0.5 mg/kg”, the “Effect of propanolol or atenolol on the action of the product” value ([9]; anesthetized dogs, hydrochloride) was “The injection of atenolol into 2 dogs reduces the effects of CRL 41 221; also recorded: the injection of propanolol does not increase the β^- effects” and the “Heart rate after isoprenaline” value [9, 24] was 262 beats/minute. The “Heart rate before isoprenaline” value [9, 24] was 212 beats/minute, the “Systolic blood pressure after norepinephrine” value [9, 25] was 266 mm Hg and the “Systolic blood pressure before norepinephrine” value [9, 25] was 158 mm Hg. The “Vasodilator (conclusion)” value ([9]; hydrochloride) was “vasodiating properties; also recorded: consequently a vasodilator”, the “Immunological effect (overall)” value [10] was “immunostimulant or immunomodulating effects; also recorded: has an immunomodulating effect and increases the cellular immunity” and the “Time taken for convulsions to occur” value [11] was “a reduction in the aggressiveness and (he time taken for convulsions and death to occur”. The “Time taken for death to occur” value [11] was “a reduction in the aggressiveness and (he time taken for convulsions and death to occur”, the “Stereotype movements (summary)” value [12] was “the presence of stereotype movements in mice and rats” and the “Overall behavior: observed effects (summary)” value ([12]; hydrochloride) was “excitation with hyperreactivity in mice and rats; also recorded: mydriasis and salivation in mice and rats”. The “Period of immobility due to despair” value [13] was “a reduction in the period of immobility of mice which have been forcibly immersed”, the “Motor activity of mice accustomed to their enclosure” value [14] was “resumption in the motor activity of mice accustomed to their enclosure” and the “Number of fights / intergroup aggressiveness” value [15] was “a reduction in the aggressiveness”. For the same compound, the “Duration of the sleep induced by barbital” value [16] was “a reduction in the duration of the sleep induced by barbital”, the “Antidepressant effects (overall)” value [17] was “antidepressant properties” and the “Stimulant effects (overall)” value [17] was “large stimulant component”. The “α-adrenergic stimulant effects (overall)” value [17] was “an α-adrenergic stimulation component”, the “Stereotype movements (summary)” value [18] was “the presence of stereotype movements in mice and rats” and the “Overall behavior: observed effects (summary)” value ([18]; hydrochloride) was “excitation with hyperreactivity in mice and rats; also recorded: mydriasis and salivation in mice and rats”. For the same compound, the pH ([19]; 6 g/liter in distilled water) was 5.0, the pH ([19]; 13 g/liter in distilled water) was 4.5 and the pH ([19]; 50 g/liter in distilled water) was 4.0. For the same compound, the pH ([19]; ≤3 g/liter in distilled water) was 5.5 and the “Effect on hypothermia induced by apomorphine” value [20] was “antagonism of the hypothermia”.

With `CC(N)Cc1ccccc1` (stereo not shown) [amphetamine, reference compound] the selectivity ratio [21] was ~8 and the “Effect of alpha-methyltyrosine on the stereotypies induced by the substance” value [22] was “totally inhibits the stereotypies induced by amphetamine; also recorded: totally inhibited”.
